For 47 compounds, IC50 and solubility results are on record in ChEMBL document CHEMBL4152332, “Discovery and synthesis of novel magnolol derivatives with potent anticancer activity in non-small cell lung cancer” (Eur J Med Chem, 2018).

One data set deals with NCI-H1975. Kind of data set: Antiproliferative activity against human NCI-H1975 cells after 72 hrs by MTT assay. The data set is classed as functional, cell-based. The conditions noted are these: NCI-H1975, 72 h. For orientation: Formazan colour is commonly taken as a measure of viable cells.
The next data set has as its system HCC827. Kind of data set: Antiproliferative activity against human HCC827 cells after 72 hrs by MTT assay. The conditions noted are these: HCC827, 72 h. Format: functional, cell-based.
For another data set, the system named is NCI-H460. Kind of data set: Antiproliferative activity against human H460 cells after 72 hrs by MTT assay. The data set is classed as functional, cell-based. The conditions noted are these: NCI-H460, 72 h.
Data set [1] is described as follows: Apparent aqueous solubility of the compound by HPLC analysis. Format: physicochemical. The conditions noted are these: aqueous solution.
The test system of another data set is NCI-H1650. Briefly: Antiproliferative activity against human NCI-H1650 cells after 72 hrs by MTT assay. The data set is classed as functional, cell-based. The conditions noted are these: NCI-H1650, 72 h.
A further data set relates to NCI-H441. Briefly: Antiproliferative activity against human H441 cells after 72 hrs by MTT assay. The data set is classed as functional, cell-based. The conditions noted are these: NCI-H441, 72 h.
The subject of the next data set is A549. Briefly: Antiproliferative activity against human A549 cells after 72 hrs by MTT assay. The data set is classed as functional, cell-based. The conditions noted are these: A549, 72 h.
A further data set concerns NCI-H358. Kind of data set: Antiproliferative activity against human NCI-H358 cells after 72 hrs by MTT assay. The conditions noted are these: NCI-H358, 72 h. Format: functional, cell-based.
The test system of the next data set is PC-9. Briefly: Antiproliferative activity against human PC9 cells after 72 hrs by MTT assay. The data set is classed as functional, cell-based. The conditions noted are these: PC-9, 72 h.
Data set [2] can be described thus: Antiproliferative activity against human SPC-A1 cells after 72 hrs by MTT assay. The data set is classed as functional, cell-based. The conditions noted are these: SPCA1, 72 h.

The IC50 is the concentration at which inhibition is half-maximal. Low values mean greater potency in that assay, high ones weaker potency in that assay. `C=CCc1ccc(O)c(-c2cc(CC=C)cc(CN3CCC(NC(=O)C=C)CC3)c2O)c1`: the IC50 in the data set on NCI-H1975, in the data set on HCC827 and in the data set on NCI-H460 was greater than 20 µM each time.
Regarding `C=CCc1ccc(O)c(-c2cc(CC=C)cc(CN3CCCC(C)C3)c2O)c1` (centres undefined), the half-maximal inhibitory concentration (IC50) with NCI-H1975, with HCC827 and in the data set with NCI-H460 was greater than 20 µM throughout.
As for `C=CCc1ccc(O)c(-c2cc(CC=C)cc(CN3CCN(C(C)=O)CC3)c2O)c1`, the half-maximal inhibitory concentration (IC50) in the data set with NCI-H1975, in the data set on HCC827 and with NCI-H460 was greater than 20 µM in each case.
Take `C=CCc1ccc(O)c(-c2cc(CC=C)cc(CN3CCN(C(=O)C4CC4)CC3)c2O)c1`: the half-inhibitory concentration (IC50) in the data set with NCI-H1975, in the data set on HCC827 and with NCI-H460 was greater than 20 µM throughout.
Regarding `C=CCc1ccc(O)c(-c2cc(CC=C)cc(CN3CCN(CC=C)CC3)c2O)c1`, the IC50 in the data set on NCI-H1975, in the data set on HCC827 and in the data set with NCI-H460 was greater than 20 µM in each case.
For the compound `C=CCc1ccc(O)c(-c2cc(CC=C)cc(CN3CCN(c4ccccc4)CC3)c2O)c1`, the IC50 in the data set on NCI-H1975, in the data set with HCC827 and in the data set on NCI-H460 was greater than 20 µM in each case.
For the compound `C=CCc1ccc(O)c(-c2cc(CC(O)CO)ccc2O)c1` (centres undefined), the IC50 in the data set on NCI-H1975, in the data set on HCC827 and with NCI-H460 was greater than 40 µM in each case.
For `C=CCc1ccc(O)c(-c2cc(CC=C)cc(CN3CCN(C(=O)OC(C)(C)C)CC3)c2O)c1`, the 50% inhibitory concentration (IC50) in the data set with NCI-H1975, in the data set with HCC827 and in the data set with NCI-H460 was greater than 20 µM throughout.
Take `C=CCc1ccc(O)c(-c2cc(CC=C)cc(CN3CCN(C=O)CC3)c2O)c1`: the IC50 with NCI-H1975, with HCC827 and in the data set on NCI-H460 was greater than 20 µM throughout.
Regarding `C=CCc1ccc(O)c(-c2ccc(O)c(/C=C/C)c2)c1`, the IC50 in the data set with NCI-H1975 turned out to be 25.8 µM; with HCC827, 26.4 µM; in the data set on NCI-H460, 25.3 µM.
The corresponding values for `C=CCc1ccc(O)c(-c2cc(CC=C)cc(CN3CCCCC3)c2O)c1` are greater than 20 µM, greater than 20 µM and greater than 20 µM.
Taken in the same sequence, the figures for `C=CCc1ccc(O)c(-c2cc(CC=C)cc(CN3CCN(Cc4ccccc4)CC3)c2O)c1` were greater than 20 µM, greater than 20 µM and greater than 20 µM.
Taken in the same sequence, the figures for `C=CCc1ccc(O)c(-c2cc(CC=C)cc(CN3CCC(CN)CC3)c2O)c1` were greater than 20 µM, greater than 20 µM and greater than 20 µM.
In the case of `C=CCc1ccc(O)c(-c2cc(CC=C)cc(CN3CCCC(C(=O)OCC)C3)c2O)c1` (centres undefined), the IC50 in the data set with NCI-H1975, with HCC827 and in the data set on NCI-H460 was greater than 20 µM throughout.
With `C=CCc1ccc(O)c(-c2ccc(O)c(CC(O)CO)c2)c1` (centres undefined), the IC50 with NCI-H1975, with HCC827 and in the data set on NCI-H460 was greater than 40 µM in each case.
As for `C=CCc1ccc(O)c(-c2cc(CC=C)cc(CN3CCN(CCO)CC3)c2O)c1`, the half-maximal inhibitory concentration (IC50) in the data set on NCI-H1975 amounted to 16.5 µM; in the data set on HCC827 it was 18.9 µM; in the data set on NCI-H460 it was 17.4 µM.
As for `C=CCc1cc(-c2cc(C(=O)O)ccc2O)ccc1O`, the 50% inhibitory concentration (IC50) with NCI-H1975, with HCC827 and with NCI-H460 was greater than 40 µM throughout.
In the case of `C=CCc1ccc(O)c(-c2cc(CC=C)cc(CN3CCN(CCCC)CC3)c2O)c1`, the IC50 with NCI-H1975, in the data set on HCC827 and in the data set on NCI-H460 was greater than 20 µM throughout.
In the case of `C=CCc1ccc(O)c(-c2cc(CC=C)cc(CN3CCN(C(=O)N(C)C)CC3)c2O)c1`, the concentration for half-maximal inhibition (IC50) with NCI-H1975, in the data set on HCC827 and in the data set on NCI-H460 was greater than 20 µM each time.
Regarding `C=CCc1ccc(O)c(-c2cc(CC=C)cc(CN3CCCC(NC(=O)C=C)C3)c2O)c1` (centres undefined), the IC50 with NCI-H1975, with HCC827 and with NCI-H460 was greater than 20 µM in each case.
For the compound `C=CCc1cc(-c2cc(/C=C/CO)ccc2O)c(O)c([C@@H]2C=C(C)CC[C@H]2C(C)C)c1`, the IC50 in the data set on NCI-H1975, with HCC827 and in the data set with NCI-H460 was greater than 40 µM throughout.
`C=CCc1ccc(O)c(-c2cc(CC=C)cc(CN3CCC(C(=O)OCC)CC3)c2O)c1`: the IC50 in the data set with NCI-H1975, in the data set with HCC827 and in the data set on NCI-H460 was greater than 20 µM each time.
For the compound `C=CCc1cc(-c2cc(CC=C)cc([C@@H]3C=C(C)CC[C@H]3C(C)C)c2O)c(O)c([C@@H]2C=C(C)CC[C@H]2C(C)C)c1`, the 50% inhibitory concentration (IC50) in the data set on NCI-H1975, in the data set with HCC827 and in the data set with NCI-H460 was greater than 40 µM each time.
Consider `C=CCc1cc(-c2ccc(O)c(CC=C)c2)c(O)c([C@@H]2C=C(C)CC[C@H]2C(C)C)c1`, for which the 50% inhibitory concentration (IC50) worked out at 26.7 µM with NCI-H1975, 31.4 µM in the data set with HCC827 and 27.6 µM in the data set on NCI-H460.
Taken in the same sequence, the figures for `C=CCc1ccc(O)c(-c2cc(CC=C)cc(CN3CCSCC3)c2O)c1` were greater than 20 µM, greater than 20 µM and greater than 20 µM.
The corresponding values for `C=CCc1cc(-c2cc(CC(O)CO)ccc2O)ccc1O` (centres undefined) [MAGNOLIGNAN] are greater than 40 µM, greater than 40 µM and greater than 40 µM.
Taken in the same sequence, the figures for `C=CCc1cc(-c2cc(O)ccc2O)ccc1O` [MAGNATRIOL B] were greater than 40 µM, greater than 40 µM and greater than 40 µM.
As to `C=CCc1cc(-c2cc(/C=C/CO)ccc2O)ccc1O`, the results for the IC50 with NCI-H1975, with HCC827 and in the data set on NCI-H460 were 34.5 µM, 33.6 µM and 31.6 µM, respectively.
The corresponding values for `C=CCc1ccc(O)c(-c2ccc(O)c(CC3CO3)c2)c1` (centres undefined) are greater than 40 µM, greater than 40 µM and greater than 40 µM.
The corresponding values for `C=CCc1ccc(O)c(-c2cc(CC=C)cc(CN3CCN(C(=O)OCC)CC3)c2O)c1` are greater than 20 µM, greater than 20 µM and greater than 20 µM.
Taken in the same sequence, the figures for `C=CCc1ccc(O)c(-c2cc(CC=C)cc(CN3CCC(NC(=O)OC(C)(C)C)CC3)c2O)c1` were 15.8 µM, 12.9 µM and 17.5 µM.
On to `C=CCc1ccc(O)c(-c2cc(CC=C)cc(CN3CCN(C(C)C)CC3)c2O)c1`, for which the IC50 in the data set on NCI-H1975, in the data set with HCC827 and in the data set with NCI-H460 was greater than 20 µM each time.
For `OCC(O)Cc1ccc(O)c(-c2cc(CC(O)CO)ccc2O)c1` (centres undefined), the IC50 in the data set with NCI-H1975, in the data set on HCC827 and in the data set with NCI-H460 was greater than 40 µM in each case.
As to `C=CCc1ccc(O)c(-c2cc(CC=C)cc(CN3CCCC(NC(=O)OC(C)(C)C)C3)c2O)c1` (centres undefined), the IC50 in the data set on NCI-H1975 was determined as 13.9 µM; with HCC827, 15.5 µM; in the data set with NCI-H460, 16.4 µM.
The corresponding values for `C=CCc1ccc(O)c(-c2cc(CC=C)cc(CN3CCNCC3)c2O)c1` are greater than 20 µM, greater than 20 µM and greater than 20 µM.
The solubility is the dissolved amount per volume that the medium holds. Turning to `C=CCc1ccc(O)c(-c2cc(CC=C)cc([C@@H]3C=C(C)CC[C@H]3C(C)C)c2O)c1`, the concentration for half-maximal inhibition (IC50) came out at 16.6 µM in the data set with NCI-H1975, 15.8 µM in the data set with HCC827 and 18.6 µM in the data set with NCI-H460. In addition, the solubility in data set [1] is less than 10 µg/mL.
Regarding `C=CCc1ccc(O)c(-c2cc(C(=O)O)ccc2O)c1`, the IC50 in the data set with NCI-H1975, in the data set on HCC827 and in the data set on NCI-H460 was greater than 40 µM each time.
In the case of `C=CCc1ccc(O)c(-c2cc(O)ccc2O)c1` [RANDAIOL], the IC50 in the data set on NCI-H1975, in the data set with HCC827 and in the data set with NCI-H460 was greater than 40 µM throughout.
Take `C=CCc1ccc(O)c(-c2cc(CC=C)ccc2O)c1` [MAGNOLOL]: the IC50 with NCI-H1975 is greater than 40 µM; in the data set with HCC827, greater than 40 µM; in the data set on NCI-H460, greater than 40 µM; in the data set on NCI-H1650 it was 56.6 µM; in the data set with NCI-H441, 58.7 µM; with A549, 57.4 µM. Also, the IC50 with NCI-H358 was 61.2 µM; in the data set with PC-9, 69 µM; in [2] it was 78.2 µM. For the same compound, the solubility in data set [1] is less than 10 µg/mL.
With `C=CCc1cc(-c2cc(/C=C/C=O)ccc2O)ccc1O` [MAGNALEDEHYDE B], the IC50 with NCI-H1975 is 34.1 µM; in the data set on HCC827, 35.5 µM; with NCI-H460, 32.4 µM.
The corresponding values for `C=CCc1ccc(O)c(-c2cc(CC=C)cc(CN3CCCC(CO)C3)c2O)c1` (centres undefined) are greater than 20 µM, greater than 20 µM and greater than 20 µM.
As to `C=CCc1cc(-c2cc(C=O)ccc2O)ccc1O` [MAGNALEDEHYDE E], the IC50 with NCI-H1975, in the data set on HCC827 and in the data set with NCI-H460 was greater than 40 µM in each case.
Turning to `C=CCc1ccc(O)c(-c2cc(/C=C/CO)ccc2O)c1`, the IC50 in the data set with NCI-H1975, with HCC827 and with NCI-H460 was greater than 40 µM throughout.
Regarding `C=CCc1ccc(O)c(-c2cc(CC=C)cc(CN3CCC(CNC(=O)OC(C)(C)C)CC3)c2O)c1`, the IC50 with NCI-H1975, with HCC827 and with NCI-H460 was greater than 20 µM in each case.
`C=CCc1ccc(O)c(-c2cc(CC=C)cc(CN3CCOCC3)c2O)c1`: the IC50 with NCI-H1975, with HCC827 and in the data set on NCI-H460 was greater than 20 µM each time.
As for `C=CCc1ccc(O)c(-c2cc(CC=C)cc(CN3CCN(C)CC3)c2O)c1`, the half-inhibitory concentration (IC50) in the data set on NCI-H1975, in the data set on HCC827 and in the data set on NCI-H460 was greater than 20 µM each time.
Take `C=CCc1ccc(O)c(-c2cc(CC=C)cc(CN3CCN(CCCO)CC3)c2O)c1`: the IC50 with NCI-H1975, in the data set on HCC827 and in the data set with NCI-H460 was greater than 20 µM in each case.
